Bridge positions count the residues as written; N and C are the ends. Peptide text beside a SMILES is read from it. * marks the point of attachment. X1 = CC/C=C\C/C=C\C/C=C\C/C=C\C/C=C\C/C=C\CCC(=O)*
Columns and labels:
[1] = tested on: breast cancer cell line (MDA-MB-231), liver cancer cell lines (Hep3B and HepG2); test: Cell growth by MTT assay after DHA treatment of cancer cell lines; assay type: cell-based
Method: First, to test the effect of DHA itself, a breast cancer cell line (MDA-MB-231), liver cancer cell lines (Hep3B and HepG2), a normal hMSC cell line (LA211), and a non-tumorigenic lung cell line (BEAS-2B) were treated with DHA over concentrations, and then cell growth was analyzed by MTT assay.

[2] = tested on: non-tumorigenic lung cell line (BEAS-2B)
Method: (§1) As an example thereof, FIG. 10 illustrates cell numbers at 48 hours and 96 hours after treatment of each drug at different concentrations in a breast cancer cell line (MDA-MB-231), normal human mesenchymal stem cells (hMSCs, LT18), and a non-tumorigenic lung cell line (BEAS-2B), cell growth inhibition graphs to get GI50 values, and representative photographs of cells.
(§2) First, to test the effect of DHA itself, a breast cancer cell line (MDA-MB-231), liver cancer cell lines (Hep3B and HepG2), a normal hMSC cell line ([…]), and a non-tumorigenic lung cell line (BEAS-2B) were treated with DHA over concentrations, and then cell growth was analyzed by MTT assay.

[3] = tested on: normal human mesenchymal stem cells (hMSCs)
Method: as §1, §2

Hep3B xenograft = test: Tumor growth inhibition in Hep3B xenograft mouse model; assay type: in vivo
Method: In order to confirm the anticancer efficacy of ACP52CG and ACP52CK in vivo, following groups of treatment were performed […]; a negative control (saline; mock), a positive control (sorafenib, 10 mg/kg and ACP52C, 2 mg/kg), and an experimental group (ACP52CK, 5 mg/kg and ACP52CG, 5 mg/kg).

[4] = tested on: breast cancer (MDA-MB-231) and liver cancer (HepG2) cell lines
[5] = tested on: CP2c transcription factor complexes [CP2c homotetramer and the CBP (CP2c, CP2b, and PIAS1) heterohexamer]; test: Interference with CP2c transcription factor complex formation and DNA binding; assay type: biochemical
Text: Since PEP #5-2 cannot enter cells by itself, in order to improve cell permeability of Pep #5-2, a cell-penetrating peptide (CPP), an internalizing RGD (iRGD) which is a peptide consisting of 9 amino acids (9aa) ‘Cys-Arg-Gly-Asp-Lys-Gly-Pro-Asp-Cys (CRGDKGPDC, SEQ ID NO: 3)’, was bound to the CP2c-targeting peptide and named it as ACP52C (FIG. 7).

MCF7 cells = conditions: ACP52C-treated MCF7 cells
[6] = Stability in serum (in vitro) by HPLC; assay type: in vitro ADME
Text: (§3) The following methods were used to confirm the stability and safety of the cancer cell-specific cell death-inducing ACP52C. […] It is presumed that ACP52C is subjected to renal secretion rather than degradation by proteases, since ACP52C (a peptide consisted of 15 amino acids) is short enough to be easily secreted from the kidneys.

[7] = Live imaging of Cy5-labeled peptide after tail vein injection in Hep3B xenograft mouse; conditions: in vivo
Text: as §3

human erythrocytes = test: Hemolysis of erythrocytes; assay type: cell-based; conditions: pH 7.4, 8 hours
Text: as §3

MDA-MB-231 cell line = conditions: MDA-MB-231, FACS
MCF10A cells = conditions: electron microscopy
MDA-MB-231 cells = conditions: western blotting of apoptosis-related proteins, electron microscopy, Annexin V/PI
[8] = tested on: MCF10A, a non-tumorigenetic breast epithelial cell line; conditions: FACS
[9] = tested on: various cancer cell lines; test: Cell growth inhibition in various cancer cell lines (MTT assay, GI50); assay type: cell-based
[10] = Half-life in blood (in vivo) by HPLC; conditions: read-out: time to degradation to half in blood (in vivo) (converted)
Text: as §3

[11] = tested on: MDA-MB-231 and HepG2 cell lines
[12] = tail vein, 6 times at 3-day intervals, sorafenib 10 mg/kg, DHA-ACP52 1.65 mg/kg, DHA-ACP52C 2.79 mg/kg

## CC/C=C\C/C=C\C/C=C\C/C=C\C/C=C\C/C=C\CCC(=O)O [DHA, all-cis-docosa-4,7,10,13,16,19-hexa-enoic acid, reference compound]
[1]; Hep3B and MDA-MB-231 cell lines
  anticancer effect at a concentration of 10 μM or less: no anticancer effect was exhibited
[1]; cancer cells, MTT
  concentration showing cytotoxicity: ≥ 20 µM
[2]; human
  concentration showing cytotoxicity: ≥ 20 µM
[3]
  cytotoxicity: showed no cytotoxicity on the normal cell line

## CC/C=C\C/C=C\C/C=C\C/C=C\C/C=C\C/C=C\CCC(=O)NCC(=O)NCC(=O)N[C@@H](CC(N)=O)C(=O)N[C@@H](Cc1ccc(O)cc1)C(=O)N1CCC[C@H]1C(=O)N[C@@H](CCC(N)=O)C(=O)N[C@@H](CCCNC(=N)N)C(=O)N1CCC[C@H]1C(N)=O [DHA-ACP52] (X1-GGNYPQRP-NH2)
Hep3B xenograft; [12]
  tumor size, shape, and weight in sacrificed mice: did not exhibit any effect
[4]
  GI50: 5.7 to 6.95 µM
[2]
  toxicity: none of DHA-ACP52 and DHA-ACP52C showed toxicity
[3]
  toxicity: none of DHA-ACP52 and DHA-ACP52C showed toxicity

## PEP #5: peptide binding transcription factor CP2c, identified by the phage display method (YPQR; peptide for targeting CP2c)
[5]
  interference with DNA binding of the CP2c transcription factor complexes by suppressing complex formation: interferes with DNA binding of the CP2c transcription factor complexes

## N=C(N)NCCC[C@@H]1NC(=O)[C@@H](NC(=O)[C@@H]2CCCN2C(=O)[C@H](CCCNC(=N)N)NC(=O)[C@H](CCC(N)=O)NC(=O)[C@@H]2CCCN2C(=O)[C@H](Cc2ccc(O)cc2)NC(=O)[C@@H](N)CC(N)=O)CSSC[C@@H](C(N)=O)NC(=O)[C@H](CC(=O)O)NC(=O)[C@@H]2CCCN2C(=O)CNC(=O)[C@H](CCCCN)NC(=O)[C@H](CC(=O)O)NC(=O)CNC1=O [ACP52C] (H-NYPQRPCRGDKGPDC-NH2; disulfide 7-15; N-terminus assumed)
MCF7 cells
  expression of Cdc2 (CDK1) and Cyclin B1: expression of Cdc2 (CDK1) and Cyclin B1 was decreased
[6]
  time stable in serum (in vitro): up to 24 hours
Hep3B xenograft; injected by 3-day intervals
  anticancer effect (summary): exhibited a significant anticancer effect when injected by 3-day intervals
Hep3B xenograft; injected by 5-day intervals
  anticancer effect (summary): did not exhibit a significant anticancer effect when injected by 5-day intervals
[7]
  half-life: ~7.95 h
Human erythrocytes
  hemolysis: Hemolysis was not appeared
MDA-MB-231 cell line
  cell cycle changes: induced cell cycle arrest, increasing cells at G2/M and subG1 phases
MCF10A cells
  characteristics of apoptosis (condensation of cell nuclei): not at all in MCF10A cells
MDA-MB-231 cells
  cell death induction via apoptosis: induced cell death via apoptosis
[8]
  cell cycle progression: exerted no effect on cell cycle progression
[9]
  effective concentration for cancer cell-specific cell death: ≤ 10 µM
[9]; various cancer cell lines
  cancer cell-specific growth suppression and cell death: cancer cell-specific growth suppression and cell death efficacies
[10]
  half-life: 2 h
[11]; CP2c overexpression
  colony formation ability when CP2c is overexpressed: the colony formation ability is suppressed more efficiently
[11]; MDA-MB-231 and HepG2
  colony formation ability: efficiently suppressed the colony formation ability
[4]
  GI50: 2 µM

## NYPQRP(Asn-Try-Pro-Gln-Arg-Pro, SEQ ID NO: 2) (peptide for targeting CP2c) [PEP #5-2, CP2c-targeting peptide of 6 amino acids at the carboxyl terminus of PEP #5]
[5]
  interference with DNA binding of the CP2c transcription factor complexes by suppressing complex formation: showed the same effect as PEP #5

## CNC(=O)c1cc(Oc2ccc(NC(=O)Nc3ccc(Cl)c(C(F)(F)F)c3)cc2)ccn1 [sorafenib, reference compound]
Hep3B xenograft; [12]
  tumor size measured once every 3 days during the experiment: inhibited cancer growth more effectively than the group treated with mock or DHA-ACP52
  tumor size, shape, and weight in sacrificed mice: significant anticancer efficacy compared to the mock

From patent US20230078718A1, “UNSATURATED FATTY ACID-CONJUGATED CP2C-TARGETING PEPTIDE-BASED ANTICANCER AGENT” (Industry-University Cooperation Foundation Hanyang …, priority 2020, published 2023)
